Test results published in patent US6426405B2, “Neurotransmitter transporter SC6” (SmithKline Beecham P.L.C., priority 1998, dated 2002).

Target: T1, SC6 (GlyT-2 transporter) (Homo sapiens, UniProt Q9Y345)
T1 sequence (Q9Y345 1-797 F124S/A162G/Q184R/D463N/I735T/V751A): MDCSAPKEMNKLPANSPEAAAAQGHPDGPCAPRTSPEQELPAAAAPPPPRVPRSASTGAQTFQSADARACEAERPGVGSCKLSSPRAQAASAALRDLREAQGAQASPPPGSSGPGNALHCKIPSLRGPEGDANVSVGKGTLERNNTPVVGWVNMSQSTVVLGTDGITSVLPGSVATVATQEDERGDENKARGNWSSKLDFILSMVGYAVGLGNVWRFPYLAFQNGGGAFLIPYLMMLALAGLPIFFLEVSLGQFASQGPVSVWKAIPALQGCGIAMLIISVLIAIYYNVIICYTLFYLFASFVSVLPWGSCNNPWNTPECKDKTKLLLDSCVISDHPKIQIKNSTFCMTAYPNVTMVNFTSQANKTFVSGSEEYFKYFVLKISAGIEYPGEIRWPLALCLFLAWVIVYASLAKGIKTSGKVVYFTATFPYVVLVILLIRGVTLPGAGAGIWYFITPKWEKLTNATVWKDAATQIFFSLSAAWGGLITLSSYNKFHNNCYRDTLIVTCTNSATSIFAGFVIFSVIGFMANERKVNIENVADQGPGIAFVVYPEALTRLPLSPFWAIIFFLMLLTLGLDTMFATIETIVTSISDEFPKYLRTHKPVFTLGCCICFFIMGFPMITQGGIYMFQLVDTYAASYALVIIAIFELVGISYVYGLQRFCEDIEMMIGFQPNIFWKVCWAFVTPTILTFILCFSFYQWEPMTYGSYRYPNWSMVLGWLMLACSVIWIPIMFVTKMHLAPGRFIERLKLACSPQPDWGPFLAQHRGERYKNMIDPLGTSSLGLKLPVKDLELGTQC
Test: [3H]-glycine uptake assay in HEK-293 cells transiently transfected with SC6
Details: 1 mM test substance, 1 μM [3H]-glycine, alanine (5 mM) present, HEK-293 cells transfected with SC6, 37° C.

Row | effect on [3H]-glycine uptake | Compound
1 | almost totally blocked | NCC(=O)O [glycine]
2 | not significantly affected | CNCC(=O)O [sarcosine]
